Measurements published in patent US8546611B2 (priority 2008, dated 2013).
Where two headings read alike, the source gives them in different places.

What was measured:
Wistar rat males = conditions: for adaptogenic properties, conclusion in words: 6-hour immobilization stress, Wistar rats; for Eosinophils, 6 h after / Lymphocytes, 6 h after / Number of leukocytes in 1 μl of blood, 6 h after / Segmentated cells, 6 h after: 6 h after immobilization; for Eosinophils, 6 h after / Lymphocytes, 6 h after / Number of leukocytes in 1 μl of blood, 6 h after / Segmentated cells, 6 h after / Eosinophils, before / Lymphocytes, before / Number of leukocytes in 1 μl of blood, before / Segmentated cells, before: 1.5 ml of 1% succinic acid perorally 10 min prior; for Eosinophils, before / Lymphocytes, before / Number of leukocytes in 1 μl of blood, before / Segmentated cells, before: at the moment of immobilization
Protocol: Examples, illustrating the method invented, are presented below. […] SA is tested on rats endured an immobilization stress; the parameter tested is lymphocytic composition of blood, which is determined before and after stress in a blood smear taken from the caudal vein. […] A detailed description of the testing technique is given in Example 13.
The animals were fixed while lying flat on their back, with their legs secured. […] Blood was taken from the caudal vein: 10 μl for counting blood corpuscles and 20 μl for preparing a smear with its subsequent staining by Romanovsky-Giemsa).
First group: 10 min prior immobilization, the animals were injected (perorally, with the help of a stomach pump) with 1.5 ml of 1% starch solution. […] Blood was taken from the caudal vein at the moment of immobilization and 6 hours later, and stained blood smears were prepared to calculate the leukogram.

white rat females = conditions: in vivo; for Total died: 14 days
[1] = test system: erythroid cells isolated from the bone marrow of laboratory mice males; conditions: feed with succinic acid 20 mg/kg body wt., not irradiated
Protocol: The test for genotoxicity was performed on young laboratory mice males (18-20 g; 6 animals in each group). […] The control animals were given water.

[2] = test system: patients with cardiac insufficiency; conditions: for patients of functional class I, day 30 / patients of functional class II, day 30 / patients of functional class III, day 30 / patients of functional class IV, day 30 / patients of functional class I, day 60 / patients of functional class II, day 60 / patients of functional class III, day 60 / patients of functional class IV, day 60 / patients of functional class I, day 90 / patients of functional class II, day 90 / patients of functional class III, day 90 / patients of functional class IV, day 90: 100 mg twice per day with standard therapy; for patients of functional class I, day 30 / patients of functional class II, day 30 / patients of functional class III, day 30 / patients of functional class IV, day 30: after 30 days; for patients of functional class I, day 60 / patients of functional class II, day 60 / patients of functional class III, day 60 / patients of functional class IV, day 60: after 60 days; for patients of functional class I, day 90 / patients of functional class II, day 90 / patients of functional class III, day 90 / patients of functional class IV, day 90: after 90 days; for cardiotonic properties / dynamics of functional class, conclusion in words / patients of functional class I, day 0 / patients of functional class II, day 0 / patients of functional class III, day 0 / patients of functional class IV, day 0: 100 mg twice per day, 3 months; for patients of functional class I, day 0 / patients of functional class II, day 0 / patients of functional class III, day 0 / patients of functional class IV, day 0: with standard therapy, before treatment
Protocol: The test for cardiotonic activity of product samples was performed by measuring the dynamics of alteration of the functional class of cardiac failure. The functional class can be determined quite accurately by analyzing the everyday life activities according to a specific activity scale. The authors of this technique suppose that the criteria developed by NYHA (New York Heart Association) cannot provide accurate determination of functional class, since widely used terms, such as “everyday physical activity”, “sub-everyday activity” are not specific. On the basis of multiple tests, in which patients exercised on a treadmill, the authors calculated a scale of metabolic expenses for each kind of life activity (see Goldman L., Hashimoto B., Cook F. et al., Comparative reproducibility and validity of systems for assessing cardiovascular functional class: advantages of a new specific activity scale (1981) Circulation 64 (6):1227-34). This inquiry is designed to be used by medical personnel, interviewing a patient. After calculating the sum of possible energy expenses, the functional class of the patient is determined according to the summary criteria of the specific activity scale (Table 6).
In the tests, the patient groups were formed so that the people of the same functional class were equally distributed among different groups. Severe patients (of IV functional class; those having oncological diseases or suffered myocardial infarction/stroke to the brain 60 days or less before) were not admitted to the tests. The distribution of patients among groups was governed by a random number generator. The tests were carried out by the following protocol. Each patient took 100 mg of the preparation twice per day (in the morning and after lunch) during 3 months—against the background of a standard therapy administered by a physician. […] All the samples and placebo were encoded before sending into the clinic, so none of those involved into the tests (patients, physicians, medical personnel and the manager of tests) was aware of the nature of samples.
The functional class of patients was determined several times: at the beginning of tests (before the formation of test groups) and after 30, 60 and 90 days of treatment with the test samples. The estimation was performed on the basis of the activity scale (Table 7).

[3] = compared with “natural” SA
[4] = test system: erythroid cells isolated from the bone marrow of gamma-irradiated laboratory mice males; test: Radioprotective properties (micronucleus test after gamma irradiation); conditions: for radioprotective effect, conclusion in words: gamma rays 1.3 Gy, 20 mg/kg body wt., 48 h, 20 mg/kg; for Number of micronuclei per 2000 cells (radioprotective properties): mice irradiated with gamma rays 1.3 Gy, then fed 48 h succinic acid 20 mg/kg body wt., critical value 16±2

| Compound | adaptogenic properties, conclusion in words (Wistar rat males) | Total died (white rat females; female, 5000 mg/kg) | Number of micronuclei per 2000 cells (genotoxicity) ([1]; norm 5.0±1.0) | patients of functional class I, day 30 [2] | patients of functional class II, day 30 [2] | patients of functional class III, day 30 [2] | patients of functional class IV, day 30 [2] | patients of functional class I, day 60 [2] | patients of functional class II, day 60 [2] | patients of functional class III, day 60 [2] | patients of functional class IV, day 60 [2] | patients of functional class I, day 90 [2] | patients of functional class II, day 90 [2] | patients of functional class III, day 90 [2] | patients of functional class IV, day 90 [2] | patients of functional class I, day 0 [2] | patients of functional class II, day 0 [2] | patients of functional class III, day 0 [2] | patients of functional class IV, day 0 [2] | radioprotective effect, conclusion in words [4] | further results |
| --- | --- | --- | --- | --- | --- | --- | --- | --- | --- | --- | --- | --- | --- | --- | --- | --- | --- | --- | --- | --- | --- |
| O=C(O)CCC(=O)O [Example 2, succinic acid, reference compound] | slight adaptogenic properties | 0 | 5.5 ± 1.0 | 8 | 7 | 5 | 0 | 8 | 8 | 4 | 0 | 8 | 8 | 4 | 0 | 8 | 7 | 5 | 0 | no evident radioprotective effect | Eosinophils, 6 h after (Wistar rat males; listed as Ex. 2): 0%; Lymphocytes, 6 h after (Wistar rat males; listed as Ex. 2): 70 ± 5%; Number of leukocytes in 1 μl of blood, 6 h after (Wistar rat males; listed as Ex. 2): 7700; Segmentated cells, 6 h after (Wistar rat males; listed as Ex. 2): 30 ± 3%; Eosinophils, before (Wistar rat males; listed as Ex. 2): 2 ± 2%; Lymphocytes, before (Wistar rat males; listed as Ex. 2): 76 ± 4%; Number of leukocytes in 1 μl of blood, before (Wistar rat males; listed as Ex. 2): 5700; Segmentated cells, before (Wistar rat males; listed as Ex. 2): 21 ± 4%; animals died, extra test with doubled dose (white rat females; 10000 mg/kg): Not a single animal died; cardiotonic properties / dynamics of functional class, conclusion in words [2]: slight positive dynamics; biological activity, overall conclusion in words [3]: do not possess high biological activity; Number of micronuclei per 2000 cells (radioprotective properties) [4]: 22.5 ± 1.0 |
| O=C(O)CCC(=O)O [Example 3, succinic acid, reference compound] | at the “borderline” | 2 | 5.0 ± 0.6 | 9 | 7 | 4 | 0 | 9 | 7 | 4 | 0 | 10 | 7 | 3 | 0 | 8 | 7 | 5 | 0 | close to the dividing line | Eosinophils, 6 h after (Wistar rat males; listed as Ex. 3): 0.5 ± 4%; Lymphocytes, 6 h after (Wistar rat males; listed as Ex. 3): 73 ± 5%; Number of leukocytes in 1 μl of blood, 6 h after (Wistar rat males; listed as Ex. 3): 7100; Segmentated cells, 6 h after (Wistar rat males; listed as Ex. 3): 26 ± 3%; Eosinophils, before (Wistar rat males; listed as Ex. 3): 2 ± 6%; Lymphocytes, before (Wistar rat males; listed as Ex. 3): 76 ± 6%; Number of leukocytes in 1 μl of blood, before (Wistar rat males; listed as Ex. 3): 5700; Segmentated cells, before (Wistar rat males; listed as Ex. 3): 22 ± 3%; died, 14 day (white rat females; female, 5000 mg/kg): 2; cardiotonic properties / dynamics of functional class, conclusion in words [2]: more expressed; biological activity, overall conclusion in words [3]: higher activity but it is far from that of “natural” SA; Number of micronuclei per 2000 cells (radioprotective properties) [4]: 16.0 ± 1.6 |
| O=C(O)CCC(=O)O [“Natural” SA, succinic acid, reference compound] | – | 3 | – | 10 | 6 | 4 | 0 | 9 | 8 | 3 | 0 | 14 | 5 | 1 | 0 | 8 | 7 | 4 | 0 | evident radioprotectors | adaptogenic properties, conclusion in words (Wistar rat males; listed as “natural” acid): evident adaptogens; Eosinophils, 6 h after (Wistar rat males): 1.5 ± 3%; Lymphocytes, 6 h after (Wistar rat males): 74 ± 4%; Number of leukocytes in 1 μl of blood, 6 h after (Wistar rat males): 7100; Segmentated cells, 6 h after (Wistar rat males): 25 ± 3%; Eosinophils, before (Wistar rat males): 2 ± 4%; Lymphocytes, before (Wistar rat males): 75 ± 4%; Number of leukocytes in 1 μl of blood, before (Wistar rat males): 5900; Segmentated cells, before (Wistar rat males): 23 ± 2%; died, 13 day (white rat females; female, 5000 mg/kg, 13 day): 1; died, 14 day (white rat females; female, 5000 mg/kg): 2; Number of micronuclei per 2000 cells (genotoxicity) ([1]; norm 5.0±1.0, listed as “Natural acid”): 5.0 ± 1.0; cardiotonic properties / dynamics of functional class, conclusion in words ([2]; listed as “natural” acid): high cardiotonic properties; Number of micronuclei per 2000 cells (radioprotective properties) ([4]; listed as “Natural acid”): 12.0 ± 1.6 |
